According to patent US7091351B2, “Vanadium compounds for treating cancer” (Parker Hughes Institute, priority 1998, dated 2006):
Read-outs that look alike come from different tables or passages of the source.

What was measured:
Type in all cases: cell-based, human
NALM-6 cells = experiment: MTT cytotoxicity assay of oxovanadium(IV) compounds, NALM-6; settings: 48 hr
Description: (§1) The cytotoxicity of oxovanadium (W) complexes listed in Table 6 were tested against 9 different human cancer cell lines was performed using the MTT (3-[4,5-dimethylthiazol-2-yl]-2,5-diphenyl tetrazolium bromide) assay (Boehringer Mannheim Corp., Indianapolis, Ind.) as described previously (20). Briefly, exponentially growing tumor cells were seeded into a 96-well plate at a density of 4×10^4cells/well and incubated with medium containing the oxovanadium(IV) compounds concentrations ranging from 0.1 to 250 μM for 48 hours at 37° C. in a humidified 5% CO2 atmosphere. Triplicate wells were used for each treatment. To each well, 10 μl of MTT (0.5 mg/ml final concentration) was added and the plates were incubated at 37° C. for 4 hours to allow MTT to form formazan crystals by reacting with metabolically active cells . The formazan crystals were solubilized overnight at 37° C. in a solution containing 10% SDS in 0.01 M HCl. The absorbence of each well was measured in a microplate reader (Labsystems) at 540 nm and a reference wavelength of 690 nm. To translate the OD540 values into the number of live cells in each well, the OD540 values were compared to those on standard OD540—versus—cell number curves generated for each cell line. The percent survival was calculated using the formula: % survival=Live cell number[test]/Live cell number [control]×100. The IC50 values were calculated by non-linear regression analysis using an Graphpad Prism software version 2.0 (Graphpad Software, Inc., San Diego, Calif.).

MOLT-3 cells = experiment: MTT cytotoxicity assay of oxovanadium(IV) compounds, MOLT-3; settings: 48 hr
Description: as §1

[1] = tested on: HS445 Hodgkin's lymphoma cells; experiment: MTT cytotoxicity assay of oxovanadium(IV) compounds, HS445; settings: 48 hr
Description: as §1

HL-60 cells = experiment: MTT cytotoxicity assay of oxovanadium(IV) compounds, HL-60; settings: 48 hr
Description: as §1

[2] = tested on: U266BL multiple myeloma cells; experiment: MTT cytotoxicity assay of oxovanadium(IV) compounds, U266BL; settings: 48 hr
Description: as §1

[3] = tested on: ARH77 multiple myeloma cells; experiment: MTT cytotoxicity assay of oxovanadium(IV) compounds, ARH77; settings: 48 hr
Description: as §1, with “Briefly, exponentially growing tumor cells were seeded into a 96-well plate at a density of 4×10^4cells/well and incubated with medium containing the oxovanadium(IV) compounds concentrations ranging from 0.1 to 250 μM for 48 hours at 37° C. in a humidified 5% CO2 atmosphere.” left out

[4] = tested on: HS-SULTAN multiple myeloma cells; experiment: MTT cytotoxicity assay of oxovanadium(IV) compounds, HS-SULTAN; settings: 48 hr
Description: as §1

[5] = tested on: 833-K testicular cancer cells; experiment: Cytotoxic activity of oxovanadium(IV) compounds, 833-K
Description: as §1

[6] = tested on: 64cp5 testicular cancer cells; experiment: Cytotoxic activity of oxovanadium(IV) compounds, 64cp5
Description: as §1

[7] = tested on: Tera-2 testicular cancer cells; experiment: Cytotoxic activity of oxovanadium(IV) compounds, TERA-2
Description: as §1

[8] = tested on: NTD1 testicular cancer cells; experiment: Cytotoxic activity of oxovanadium(IV) compounds, NTD1
Description: as §1

U373 glioblastoma cells = experiment: Cytotoxic activity of oxovanadium(IV) compounds, U373
Description: as §1

BT20 breast cancer cells = experiment: Cytotoxic activity of oxovanadium(IV) compounds, BT20
Description: as §1

[9] = tested on: PC3 prostate cancer cells; experiment: Cytotoxic activity of oxovanadium(IV) compounds, PC3
Description: as §1

[10] = read-out: Cytotoxic Activity 833-K
[11] = read-out: Cytotoxic Activity 64cp5
[12] = read-out: Cytotoxic Activity TERA-2
[13] = read-out: Cytotoxic Activity NTD1
[14] = read-out: Cytotoxic Activity U373
[15] = read-out: Cytotoxic Activity BT20
[16] = read-out: Cytotoxic Activity PC3

Row | Substance | IC50 (NALM-6 cells) | IC50 (MOLT-3 cells) | IC50 [1] | IC50 (HL-60 cells) | IC50 [2] | IC50 [3] | IC50 [4] | IC50 [5, 10] | IC50 [6, 11] | IC50 [7, 12] | IC50 [8, 13] | IC50 (U373 glioblastoma cells; [14]) | IC50 (BT20 breast cancer cells; [15]) | IC50 [9, 16] | other results
1 | bis(2,2′-bipyrimidine)sulfatooxovanadium(IV) [Compound 39] | 12.2 ± 2.3 µM | 35.1 ± 4.7 µM | 98.4 ± 9.1 µM | > 100 µM | 99.1 ± 8.1 µM | > 100 µM | > 100 µM | > 100 µM | > 100 µM | > 100 µM | > 100 µM | > 100 µM | > 100 µM | – | –
2 | (diaqua)(2,2′ bipyridyl)oxovanadium(IV) sulfate [Compound 34] | 14.9 ± 0.6 µM | 13.1 ± 1.1 µM | 41.7 ± 5.4 µM | > 100 µM | 30.4 ± 7.8 µM | > 100 µM | 62.8 ± 2.3 µM | – | – | – | – | – | – | – | IC50 [5]: > 100 µM; IC50 [6]: > 100 µM; IC50 [7]: > 100 µM; IC50 [8]: > 100 µM; IC50 (U373 glioblastoma cells): 58.4 µM; IC50 (BT20 breast cancer cells): 51.2 µM; IC50 [9]: 55.8 µM
3 | (diaqua)(4,4′-dimethyl-2,2′-bipyridyl)oxovanadium(IV) sulfate [Compound 36] | 8.5 ± 0.5 µM | 8.2 ± 0.5 µM | 27.8 ± 3.4 µM | 38.6 ± 4.5 µM | 38.4 ± 3.2 µM | > 100 µM | 65.1 ± 6.1 µM | > 100 µM | > 100 µM | > 100 µM | > 100 µM | > 100 µM | > 100 µM | – | –
4 | (diaqua)(5-nitro-1,10-phenanthroline)oxovanadium(IV) sulfate [Compound 32] | 4.1 ± 0.4 µM | 2.3 ± 0.3 µM | 9.1 ± 2.5 µM | 4.9 ± 1.2 µM | 18.1 ± 5.1 µM | 5.4 ± 1.5 µM | 14.5 ± 2.5 µM | 11.5 µM | 25.4 µM | 7.2 µM | 20.2 µM | 20.5 µM | 13.7 µM | 12.9 µM | –
5 | bis(5-nitro-1,10-phenanthroline)sulfatooxovanadium(IV) [Compound 33] | 0.7 ± 0.01 µM | 1.4 ± 0.06 µM | 2.3 ± 0.6 µM | 2.6 ± 0.4 µM | 7.2 ± 1.1 µM | 5.7 ± 1.3 µM | 13.8 ± 3.6 µM | 1.1 µM | 5.9 µM | 2.6 µM | 9.1 µM | 7.2 µM | 5.6 µM | 6.1 µM | –
6 | (diaqua)(5-chloro-1,10-phenanthroline)oxovanadium(IV) sulfate [Compound 30] | 3.6 ± 0.07 µM | 3.4 ± 0.03 µM | 7.5 ± 2.5 µM | 15.3 ± 4.9 µM | 8.5 ± 1.2 µM | 30.3 ± 5.6 µM | 9.9 ± 5.4 µM | 12.8 µM | 10.9 µM | 18.1 µM | > 100 µM | 22.4 µM | 18.2 µM | 12.4 µM | –
